In US11566260B2, “Potentiating agents for protecting plants from fungal infections” (UNIVERSITE D'ANGERS, priority 2012, dated 2023):

Tests used:
Assay type in all cases: cell-based
Alternaria brassicicola = test: Test B: potentiating effect with a plant defense molecule on growth of Alternaria brassicicola; details: Alternaria brassicicola
Method: (§1) Test B: • 1) Determining a non-fungicidal amount of said agent, preferably according to Test A; • 2) Determining a non-fungicidal amount of a plant defense molecule, preferably according to Test A; • 3) Measuring growth of fungal conidia in a medium comprising a combination of a non-fungicidal amount of the agent, as determined in step 1, and a non-fungicidal amount of the plant defense molecule, as determined in step 2. In one embodiment, the growth is measured as follows: Suspensions of fungal conidia (starting material: 10^5 conidia/mL) are cultured in liquid medium, such as, for example, 300 μL of PBD medium, on microplate wells at 25° C. with shaking at 175 rpm for 5 minutes every 10 minutes. Non-fungicidal concentrations of the tested agent and of the tested plant defense molecule are added on wells, and fungal growth is measured during at least 5 hours, preferably at least 10, 20, 30 hours. Methods for measuring fungal growth are well known from the skilled artisan. Examples of such methods include, but are not limited to, photometry, such as, for example, spectrophotometric methods; or nephelometry, such as, for example, laser nephelometry as described in Joubert et al (Biotechniques, 2010, 48:399-404). Growth inhibition is measured by comparing the Area Under Curves (AUC) of treated samples and of untreated controls.
The potentiating effect of chelerythrin is measured in a suspension of conidia treated with a plant defense molecule, camalexin, which is present at a non-fungicidal amount as determined hereinabove. Said non-fungicidal amount is consistent with the amount of camalexin produced by an infected plant organ.
Alternaria brassicicola growth was measured as described hereinabove.
A non-fungicidal amount of chelerythrin (as determined in Example 1a) and/or a non-fungicidal amount of camalexin (as determined in Example 1b) or 10 μL of DMSO are added per well, and growth curves were drawn (FIG. 3).
In the Table 5 below are shown compounds (column 1) having a potentiating effect of a plant defense molecule (column 2) for the inhibition of a pathogenic fungus (column 3). The type of the potentiating agent in this particular situation is given in column 4 (homologous or heterologous). Triads were identified according to Test B.

Botrytis cinerea = test: Test B: potentiating effect with a plant defense molecule on Botrytis cinerea
Method: as §1, with “controls. […]” for “controls.”

Alternaria dauci [1] = test: Test B: potentiating effect with a plant defense molecule on growth of Alternaria dauci; details: plant defense molecule 6-methoxymellein
Method: as §1, with “Examples of such methods include, but are not limited to, photometry, such as, for example, spectrophotometric methods; or nephelometry, such as, for example, laser nephelometry as described in Joubert et al (Biotechniques, 2010, 48:399-404).” left out, “controls. […]” for “controls.”
Following the aforementioned growth inhibition protocol, the following treatments are assessed: • 6-methoxymellein 125 μM, • 6-methoxymellein 100 μM, • 6-methoxymellein 125 μM and M. cordata extract (10 μM of Sanguinarine), • 6-methoxymellein 100 μM and M. cordata extract (10 μM of Sanguinarine).

Alternaria dauci [2] = test: Growth inhibition of Alternaria dauci (protocol of Example 1), non-fungicidal amount
Method: Suspensions of fungal conidia (starting material being for example 10^5 conidia/mL) are cultured in liquid medium, such as, for example, 300 μL of PBD medium, on microplate wells at 25° C. with shaking at 175 rpm for 5 minutes every 10 minutes. Increasing concentrations of the tested product are added on wells, and fungal growth is measured, during at least 5 hours, preferably at least 10, 20, 30 hours. Methods for measuring fungal growth are well known from the skilled artisan. […] Growth inhibition is measured by comparing the Area Under Curves (AUC) of treated samples and of untreated controls. […]
For inoculum preparation, conidia were collected from 8-days-old solid cultures by adding PD broth followed by gentle scraping of the agar plates. They were counted in a Thoma's chamber and the conidial suspensions were diluted to the concentration of 10^5 conidia/mL.
Growth was automatically recorded for at least 30 hours at 25° C. using a nephelometric reader (NEPHELOstar Galaxy, BMG Labtech, Germany) equipped with a 635-nm laser as radiation source. […] Each well was measured for 0.1 second with a laser beam of 2.5 mm.
The non-fungicidal amount of the sanguinarine contained in M. cordata extract against A. dauci strain was determined as 12 μM or 4 ppm according to the protocol described in Example 1. […]

[3] = plant defense molecule Brassinin
[4] = plant defense molecule Resveratrol

CCOc1cc2c3cc(OC)c(OC)cc3c[n+](C)c2c2cc(OC)c(OC)cc12 [Compound 2]
Type of potentiating agent (compound having a potentiating effect of the plant defense molecule) (Alternaria brassicicola; [3]): Homologous
Type of potentiating agent (compound having a potentiating effect of the plant defense molecule) (Botrytis cinerea; [3]): Homologous
Type of potentiating agent (compound having a potentiating effect of the plant defense molecule) (Botrytis cinerea; plant defense molecule Camalexin): Homologous
Type of potentiating agent (compound having a potentiating effect of the plant defense molecule) (Alternaria dauci [1]): Homologous

CCOc1cc2c3cc(OC)c(OC)cc3cnc2c2cc(OC)c(OC)cc12 [Compound 1]
Type of potentiating agent (compound having a potentiating effect of the plant defense molecule) (Alternaria brassicicola; [4]): Heterologous

COc1cc(O)c2c(c1)C[C@@H](C)OC2=O [6-methoxymellein]
growth inhibition of Alternaria dauci (Alternaria dauci [2]; 6-methoxymellein 100 μM): did not inhibit
growth inhibition of Alternaria dauci (Alternaria dauci [2]; 6-methoxymellein 125 μM): did not inhibit

COc1cc2c[n+](C)c3c4cc(OC)c(OC)cc4c(OCc4ccccc4)cc3c2cc1OC [Compound 4]
Type of potentiating agent (compound having a potentiating effect of the plant defense molecule) (Alternaria brassicicola; [3]): Homologous
Type of potentiating agent (compound having a potentiating effect of the plant defense molecule) (Alternaria brassicicola; [4]): Heterologous
